Earlier results in the CATMoS acute toxicity set (Mansouri et al. 2021).

Assay: rat acute oral toxicity
Conditions: in vivo

| SMILES | LD50 [mg/kg] |
| --- | --- |
| ClC=C(Cl)c1ccccc1 | 4000 |
| CCCCC(CC)COC(C[n+]1ccccc1)c1ccc(Cl)c(Cl)c1 (configuration not stated) | 250 |
| CC1NC(=S)NC1=O (configuration not stated) | 1050 |
| CC(=O)OCC(=O)NCCCOc1cccc(CN2CCCCC2)c1 | 755 |
| O=[N+]([O-])c1nccs1 | 137 |
| CC(=O)c1c(=O)cc(C)oc1=O | 706 |
| CNC(C)CC1CCCC1 (configuration not stated) | 169 |
| CCCCN1CCCC1C(=O)Nc1c(C)cc(C)cc1C (configuration not stated) | 14000 |
| CCCCCCCCCCCCCCCCCC(=O)NCCC[N+](C)(C)CCO | 8100 |
| COc1c2ccoc2cc2oc(C)cc(=O)c12 | 832 |
| COP(=S)(OC)SCc1nc(=O)o[nH]1 | 10 |
| CC1=CCC2CC1C2(C)C (configuration not stated) | 3700 |
| CCNC(=S)OC(C)C | 568 |
| CCS(=O)CC | 5650 |
| O=C(Oc1ccc(Cl)cc1Cl)N1CCCC1 | 2200 |
| COc1cc(C(C)=O)ccc1OCCCCN1CCN(c2ccccc2)CC1 | 573 |
| C[n+]1ccccc1 | 285 |
| CCNC(N)=S | 100 |
| O=C(c1ccc(O)cc1O)c1ccc(O)cc1O | 1220 |
| CN1C(=O)CN=C(c2ccccc2F)c2cc([N+](=O)[O-])ccc21 | 415 |
| C=C[Si](Cl)(Cl)CC | 2830 |

| SMILES | LD50 [mg/kg] |
| --- | --- |
| Clc1cc2c(cc1Cl)Oc1c(cc(Cl)c(Cl)c1Cl)O2 | 0.206 |
| Cc1cc(C)[nH]n1 | 1720 |
| CCC(C)(O)CCc1ccccc1 (configuration not stated) | 2950 |
| FC(F)(F)c1nc2c(Br)cc(Br)cc2[nH]1 | 5.98 |
| CO[C@]12C[C@@H](COC(=O)c3cncc(Br)c3)CN(C)[C@@H]1Cc1cn(C)c3cccc2c13 | 1190 |
| COP(=O)(OC)SC(P(=O)(OC)OC)=P(OC)(OC)OC | 38 |
| CCCCCCCCCCCCOCCO | 6550 |
| O=C(O)CCCCCCl | 3080 |
| CCC(CC)C(=O)OCCOCCOCCOC(=O)C(CC)CC | 6000 |
| c1ccc(C2(c3ccccc3)CC2C2=NCCN2)cc1 (configuration not stated) | 359 |
| CCCCC(CC)COC(C[n+]1ccccc1)c1cccc(C2CCCCC2)c1 (configuration not stated) | 250 |
| CCCCCCC#COC(=O)OCC | 2850 |
| Cc1onc2c(=O)n(-c3ccccc3)nc(-c3ccccc3)c12 | 1000 |
| O=C(O[C@H]1C[C@H]2CC[C@@H](C1)[N+]21CCCC1)C(O)(c1ccccc1)c1ccccc1 | 1510 |
| COC(=N)N | 3700 |
| O=[N+]([O-])c1ccc(O)c2ncccc12 | 510 |
| C=C(C)C(=O)OCC(=O)OCC | 7880 |
| CCCCON=O | 83 |
| COc1ccc(C[C@H]2NC[C@H](O)[C@H]2OC(C)=O)cc1 | 72 |
| OC1(c2ccc(Cl)cc2)c2ccccc2C2=NCCN21 (configuration not stated) | 36.3 |
| C#CCBr | 53 |

| SMILES | LD50 [mg/kg] |
| --- | --- |
| OCC(O)C1CC=CCC1 (configuration not stated) | 1070 |
| CN(N=O)c1ccc(N=Nc2ccccc2)cc1 | 1200 |
| CCOP(=S)(OCC)SC(CBr)N1C(=O)c2ccccc2C1=O (configuration not stated) | 18 |
| Cc1cccc(N(CCO)CCO)c1 | 3100 |
| OCCOc1ccc(Cl)cc1Cl | 1410 |
| O=C(CF)NCc1ccc(Br)cc1 | 410 |
| CN1CCN(N=O)CC1 | 100 |
| CC/C(=C(\c1ccccc1)c1ccc(OCCN(C)C)cc1)c1ccccc1 | 4100 |
| Cn1nc(-c2ccccc2)c2conc2c1=O | 1000 |
| COC(C)CC(CC(OC)OC)OC (configuration not stated) | 4090 |
| Cc1cc(C)cc(C(=O)Cl)c1 | 3160 |
| CCOP(=S)(OCC)Oc1ccc(=O)n(-c2ccccc2)n1 | 424 |
| Nc1ccc(Cl)cc1Cl | 1600 |
| C1CCC2OCCOCCOC3CCCCC3OCCOCCOC2C1 (configuration not stated) | 176 |
| O=C(Cc1ccccc1)NNCc1ccccc1 | 2500 |
| O=C(OCCN1CCOCC1)c1cccnc1Nc1cccc(C(F)(F)F)c1 | 4300 |
| CCNC(=O)OCCSCSP(=S)(OC)OC(C)C (configuration not stated) | 8.5 |
| C=CC(N)CCC(=O)O (configuration not stated) | 3000 |
| CCOC(=O)C(C#N)C(=O)Cc1c(C)n(C(=O)c2ccc(Cl)cc2)c2ccc(OC)cc12 (configuration not stated) | 82 |
| Cn1c(=O)c2c(ncn2CCCN2CCN(CCCSc3ccccc3)CC2)n(C)c1=O | 1600 |
